ChEMBL document CHEMBL1773062, “Opioid receptor probes derived from cycloaddition of the hallucinogen natural product salvinorin A” (J Nat Prod, 2011)

Legend:
[1] = target: T1, Kappa-type opioid receptor (Homo sapiens, UniProt P41145); experiment: Displacement of [3H]U69593 from kappa opioid receptor
[2] = Selectivity ratio of Ki for delta opioid receptor to Ki for kappa opioid receptor
[3] = target: Delta-type opioid receptor (Homo sapiens, UniProt P41143); experiment: Displacement of [3H]DADLE from delta opioid receptor
Chain of Delta-type opioid receptor (P41143 whole entry): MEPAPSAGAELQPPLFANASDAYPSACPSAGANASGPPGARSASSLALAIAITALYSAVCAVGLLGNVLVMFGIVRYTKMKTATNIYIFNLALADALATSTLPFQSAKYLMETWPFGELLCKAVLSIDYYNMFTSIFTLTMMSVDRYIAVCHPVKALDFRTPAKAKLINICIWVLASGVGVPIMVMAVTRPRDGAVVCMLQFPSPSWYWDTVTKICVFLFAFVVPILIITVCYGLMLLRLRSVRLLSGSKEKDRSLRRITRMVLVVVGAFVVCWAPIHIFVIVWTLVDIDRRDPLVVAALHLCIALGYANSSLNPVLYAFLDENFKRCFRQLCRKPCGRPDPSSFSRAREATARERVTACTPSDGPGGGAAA

[4] = Selectivity ratio of Ki for mu opioid receptor to Ki for kappa opioid receptor
Mu-type opioid receptor = Mu-type opioid receptor (Homo sapiens, UniProt P35372); experiment: Displacement of [3H]DAMGO from mu opioid receptor
Chain of Mu-type opioid receptor (P35372 whole entry): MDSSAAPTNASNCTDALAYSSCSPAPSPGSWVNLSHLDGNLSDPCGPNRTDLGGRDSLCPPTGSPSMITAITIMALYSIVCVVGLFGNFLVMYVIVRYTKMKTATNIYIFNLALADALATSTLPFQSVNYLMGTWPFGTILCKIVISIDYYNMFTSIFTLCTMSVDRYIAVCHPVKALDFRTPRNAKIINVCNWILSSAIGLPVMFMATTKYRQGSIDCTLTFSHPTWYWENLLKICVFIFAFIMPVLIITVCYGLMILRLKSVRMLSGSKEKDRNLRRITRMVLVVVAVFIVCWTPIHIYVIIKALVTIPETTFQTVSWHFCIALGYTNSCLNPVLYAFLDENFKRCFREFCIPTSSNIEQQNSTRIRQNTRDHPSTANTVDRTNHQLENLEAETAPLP

[5] = target: T1, Kappa-type opioid receptor; experiment: Agonist activity at kappa opioid receptor assessed as stimulation of [35S]GTPgammaS binding relative to U50488; type: functional

T1 sequence (P41145 whole entry): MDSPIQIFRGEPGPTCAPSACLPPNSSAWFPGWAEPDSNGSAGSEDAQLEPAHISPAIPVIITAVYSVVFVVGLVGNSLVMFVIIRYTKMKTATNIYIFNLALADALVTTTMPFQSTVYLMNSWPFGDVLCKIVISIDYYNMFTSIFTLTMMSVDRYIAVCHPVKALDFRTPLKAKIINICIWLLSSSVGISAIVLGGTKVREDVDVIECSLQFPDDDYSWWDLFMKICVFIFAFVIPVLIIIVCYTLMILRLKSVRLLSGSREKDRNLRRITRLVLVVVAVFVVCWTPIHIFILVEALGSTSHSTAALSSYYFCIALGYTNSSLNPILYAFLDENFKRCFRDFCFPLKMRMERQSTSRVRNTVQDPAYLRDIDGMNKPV

COC(=O)[C@@H]1C[C@H](OC(C)=O)C(=O)[C@H]2[C@@]1(C)CC[C@H]1C(=O)O[C@H](c3ccc4ccccc4c3)C[C@]21C
Ki [1]: > 8000 nM | Ratio Ki [2]: > 0.6 | Ki [3]: > 5000 nM | Ratio Ki [4]: > 0.4 | Ki (Mu-type opioid receptor): > 3000 nM

CCOC(=O)C1=C(C(=O)OCC)C2OC1C=C2[C@@H]1C[C@]2(C)[C@H]3C(=O)[C@@H](OC(C)=O)C[C@@H](C(=O)OC)[C@]3(C)CC[C@H]2C(=O)O1 (some centres not stated)
Ki [1]: 120 nM | Ratio Ki [2]: 19 | Ki [3]: 2260 nM | Ratio Ki [4]: > 25 | Emax [5]: 90% | Ki (Mu-type opioid receptor): > 3200 nM

COC(=O)c1ccc([C@@H]2C[C@]3(C)[C@H]4C(=O)[C@@H](OC(C)=O)C[C@@H](C(=O)OC)[C@]4(C)CC[C@H]3C(=O)O2)cc1C(=O)OC
Ki [1]: 286 nM | Ratio Ki [2]: > 17 | Ki [3]: > 5000 nM | Ratio Ki [4]: > 8 | Ki (Mu-type opioid receptor): > 3000 nM

COC(=O)[C@@H]1C[C@H](OC(C)=O)C(=O)[C@H]2[C@@]1(C)CC[C@H]1C(=O)O[C@H](C3=CC4OC3C3C4C4OC3(C)c3c4c4ccccc4c(=O)c4ccccc34)C[C@]21C (some centres not stated)
Ki [1]: 290 nM | Ratio Ki [2]: > 17 | Ki [3]: > 5000 nM | Ratio Ki [4]: > 6 | Ki (Mu-type opioid receptor): > 1700 nM

CCOC(=O)c1ccc([C@@H]2C[C@]3(C)[C@H]4C(=O)[C@@H](OC(C)=O)C[C@@H](C(=O)OC)[C@]4(C)CC[C@H]3C(=O)O2)cc1C(=O)OCC
Ki [1]: 228 nM | Ratio Ki [2]: > 22 | Ki [3]: > 5000 nM | Ratio Ki [4]: > 13 | Ki (Mu-type opioid receptor): > 3000 nM

COC(=O)[C@@H]1C[C@H](OC(C)=O)C(=O)[C@H]2[C@@]1(C)CC[C@H]1C(=O)O[C@H](C3=CC4OC3C3C5OC(c6c5c5ccccc5c(=O)c5ccccc65)C43)C[C@]21C (mixture of isomers)
Ki [1]: > 13000 nM | Ratio Ki [2]: > 17 | Ki [3]: > 5200 nM | Ratio Ki [4]: > 0.2 | Ki (Mu-type opioid receptor): > 2700 nM

COC(=O)[C@@H]1C[C@H](OC(C)=O)C(=O)[C@H]2[C@@]1(C)CC[C@H]1C(=O)O[C@H](C3=CC4OC3c3ccccc34)C[C@]21C (some centres not stated)
Ki [1]: 790 nM | Ratio Ki [2]: > 13 | Ki [3]: > 10000 nM | Ratio Ki [4]: > 3 | Ki (Mu-type opioid receptor): > 2500 nM

COC(=O)C1=C(C(=O)OC)C2OC1C=C2[C@@H]1C[C@]2(C)[C@H]3C(=O)[C@@H](OC(C)=O)C[C@@H](C(=O)OC)[C@]3(C)CC[C@H]2C(=O)O1 (some centres not stated)
Ki [1]: 60 nM | Ratio Ki [2]: > 83 | Ki [3]: > 5000 nM | Ratio Ki [4]: > 80 | Emax [5]: 100% | Ki (Mu-type opioid receptor): > 4800 nM
